Source: ChEMBL document CHEMBL1151629, “Lariciresinol derivatives from Turrea nilotica and Monechma ciliatum” (1984)

Tested on: KB
Experiment: Cytotoxicity against human KB cells
Format: functional
Conditions: read-out: ED50 (the source's name)

COc1cc(C[C@H]2CO[C@H](c3ccc(OC)c(OC)c3)[C@H]2CO)ccc1O
EC50: > 10 µg/mL
